Laboratory results taken from PMC6853638, “TMC1 is an essential component of a leak channel that modulates tonotopy and excitability of auditory hair cells in mice” (eLife, 2019).
Several values for one entry are separate records, joined by “and”; a condition that tells them apart may be missing. Equal values may be shown once. Read-outs that look alike come from different tables or passages of the source. Blank lines part the entries; values can stand above or below the compound they belong to.

Key:
[1] = molecular target: T1, TMC1-mediated leak conductance (Mus musculus, UniProt Q8R4P5); test: Background/leak current (IBG) inhibition by blockers, whole-cell voltage clamp of OHCs; format: cell-based
T1 sequence (Q8R4P5 1-757): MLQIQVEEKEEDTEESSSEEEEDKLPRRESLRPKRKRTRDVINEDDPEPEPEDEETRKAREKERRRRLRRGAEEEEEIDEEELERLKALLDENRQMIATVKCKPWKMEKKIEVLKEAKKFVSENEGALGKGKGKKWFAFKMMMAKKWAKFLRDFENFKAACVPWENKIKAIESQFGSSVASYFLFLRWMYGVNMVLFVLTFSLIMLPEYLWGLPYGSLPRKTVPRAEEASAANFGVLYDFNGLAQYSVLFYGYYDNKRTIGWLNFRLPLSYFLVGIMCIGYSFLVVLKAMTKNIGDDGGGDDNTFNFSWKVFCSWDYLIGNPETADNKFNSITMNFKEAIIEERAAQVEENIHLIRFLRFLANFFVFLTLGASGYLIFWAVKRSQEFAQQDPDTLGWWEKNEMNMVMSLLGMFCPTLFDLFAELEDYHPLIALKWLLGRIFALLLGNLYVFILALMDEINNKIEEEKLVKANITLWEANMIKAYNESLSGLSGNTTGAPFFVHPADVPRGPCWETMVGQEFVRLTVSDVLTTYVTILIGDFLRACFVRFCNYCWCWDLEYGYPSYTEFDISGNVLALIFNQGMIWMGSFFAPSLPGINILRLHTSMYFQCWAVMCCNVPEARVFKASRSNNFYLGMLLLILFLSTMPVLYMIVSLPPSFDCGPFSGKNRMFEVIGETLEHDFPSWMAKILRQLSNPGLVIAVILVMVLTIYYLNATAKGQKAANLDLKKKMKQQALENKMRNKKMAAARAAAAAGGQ
Description: (§1) Hair cells were recorded using whole-cell voltage or current clamp as previously described ([Xiong et al., 2012]). All experiments were performed at room temperature (20–25°C). Briefly, the basilar membrane with hair cells was acutely dissected from neonatal mice. […] The acutely isolated or cultured basilar membrane was used for electrophysiological recording within 1 h. Hair cells were imaged under an upright microscope (BX51WI, Olympus, Tokyo, Japan) with a 60 × water immersion objective and an sCMOS camera (ORCA Flash4.0, Hamamatsu, Hamamatsu City, Japan) controlled by MicroManager 1.6 software ([Edelstein et al., 2010]). Patch pipettes were made from borosilicate glass capillaries (BF150-117-10, Sutter Instrument Co., Novato, CA) with a pipette puller (P-2000, Sutter) and polished on a microforge (MF-830, Narishige, Tokyo, Japan) to resistances of 4–6 M'Ω. […] Hair cells were recorded with a patch-clamp amplifier (EPC 10 USB and Patchmaster software, HEKA Elektronik, Lambrecht/Pfalz, Germany).
(§2) The sampling rate was 1 kHz for leak current recording, 50 kHz for the IV protocol and current-clamp recording, and 100 kHz for unitary channel recording. The voltage-clamp used a –70 mV holding potential, and the current-clamp was held at 0 pA. Only recordings with a current baseline <20 pA in NMDG solution were used for statistical analysis.
(§3) Dose-inhibition curves were fitted with a Hill equation: Ix/Imax=X^h/(K^h+X^h))
(§4) Where K is the half-inhibition dose (IC50) and h is the Hill slope. Imax is the maximal current in control condition.

MET channel [2] = molecular target: T2, MET channel (Mus musculus, UniProt Q8R4P5); test: Location-specific macroscopic MET current in OHCs, fluid-jet stimulation; format: cell-based; details: wild-type OHCs in 35 mM Ca2+
T2 construct: the basilar membrane with hair cells was acutely dissected from neonatal mice; endogenous in cells; host or cells: outer hair cells of acutely dissected neonatal mouse cochlea
Description: (§5) Hair cells were recorded using whole-cell voltage or current clamp as previously described ([Xiong et al., 2012]). All experiments were performed at room temperature (20–25°C). Briefly, the basilar membrane with hair cells was acutely dissected from neonatal mice. […] The acutely isolated or cultured basilar membrane was used for electrophysiological recording within 1 h. Hair cells were imaged under an upright microscope (BX51WI, Olympus, Tokyo, Japan) with a 60 × water immersion objective and an sCMOS camera (ORCA Flash4.0, Hamamatsu, Hamamatsu City, Japan) controlled by MicroManager 1.6 software ([Edelstein et al., 2010]). Patch pipettes were made from borosilicate glass capillaries (BF150-117-10, Sutter Instrument Co., Novato, CA) with a pipette puller (P-2000, Sutter) and polished on a microforge (MF-830, Narishige, Tokyo, Japan) to resistances of 4–6 M'Ω. Intracellular solution contained (in mM): 140 CsCl, 1 MgCl2, 0.1 EGTA, 2 Mg-ATP, 0.3 Na-GTP, and 10 H-HEPES, pH 7.2), except when CsCl was replaced with KCl in current-clamp. Hair cells were recorded with a patch-clamp amplifier (EPC 10 USB and Patchmaster software, HEKA Elektronik, Lambrecht/Pfalz, Germany).
(§6) For single-channel recordings, we followed published procedures ([Ricci et al., 2003]; [Xiong et al., 2012]). The intracellular solution was the same for macroscopic and microscopic current recording. […] After bundle destruction, fresh external solution was given to re-establish the corresponding extracellular ionic environment. […] Only traces with obvious single-channel events were included for analyzing.
The sampling rate was 1 kHz for leak current recording, 50 kHz for the IV protocol and current-clamp recording, and 100 kHz for unitary channel recording. […]
(§7) The hair bundle was deflected by two types of mechanical stimulus, fluid jet and glass probe. […] The hair-bundle-removed OHCs with good condition were further recorded. Examined by a fluid-jet stimulation, the OHCs without obvious MET current were further measured for the leak current.

leak current in OHCs = molecular target: T3, leak current in OHCs (Mus musculus, UniProt Q8R4P5); test: Ion-permeation tests of the leak current (ion substitution in the external solution); format: cell-based; details: 150 mM NaCl partially or completely replaced (150 mM CsCl; 75 mM Ca2+); compared with Na+
T3 construct: the basilar membrane with hair cells was acutely dissected from neonatal mice; endogenous in cells; host or cells: outer hair cells of acutely dissected neonatal mouse cochlea
T3 sequence (Q8R4P5 1-757): T1 sequence (Q8R4P5 1-757)
Description: as §5
(§8) In Figure 6A, LiCl and CsCl were 150 mM, completely substituting for NaCl.

MET channel [3] = test: Unitary MET channel current recording in OHCs; format: cell-based, mouse
Text: as §6, §2
(§9) The hair bundle was deflected by two types of mechanical stimulus, fluid jet and glass probe. The fluid jet stimulation was performed as described previously ([Beurg et al., 2014]). In brief, a 40 Hz sinusoidal wave stimulus was delivered by a 27-mm-diameter piezoelectric disc driven by a home-made piezo amplifier pipette with a tip diameter of 3–5 μm positioned 5–10 μm from the hair bundle to evoke maximum MET currents. […] The actuator was driven with voltage steps that were low-pass filtered at 10 KHz. To avoid bundle damage caused by overstimulation, the glass probe was shaped to have a slightly smaller diameter than the hair bundles, and the stimulation distance was 800 nm for macroscopic current and 100 nm for unitary channel recording. For hair bundle removal, a pipette with 1 μm diameter tip was used to suck away the hair bundles of the target OHCs. The hair-bundle-removed OHCs with good condition were further recorded. Examined by a fluid-jet stimulation, the OHCs without obvious MET current were further measured for the leak current.

leak current = molecular target: T4, leak current (Mus musculus, UniProt Q8R4P5); test: Background leak current in graded Ca2+ and Na+ concentrations (wild-type and Tmc1-knockout OHCs); format: cell-based; details: 35 mM [Ca2+]o
T4 construct: the basilar membrane with hair cells was acutely dissected from neonatal mice; endogenous in cells; host or cells: outer hair cells of acutely dissected neonatal mouse cochlea
T4 sequence (Q8R4P5 1-757): T1 sequence (Q8R4P5 1-757)
Description: as §5, §8
The osmotic pressure of each solution was re-adjusted to 300–320 mOsm/kg with sucrose, and the pH was adjusted to 7.4.

MET channel [4] = system: MET channel; set-up: method as in Kim and Fettiplace, 2013; details: P5 apical OHCs; ref Kim and Fettiplace, 2013; cited from earlier work
MET channel [5] = molecular target: T2, MET channel; test: MET current in graded Ca2+ and Na+ concentrations; format: cell-based; details: wild-type OHCs
Description: as §1
The hair bundle was deflected by two types of mechanical stimulus, fluid jet and glass probe. […] The hair-bundle-removed OHCs with good condition were further recorded. Examined by a fluid-jet stimulation, the OHCs without obvious MET current were further measured for the leak current. […]

MET channel [6] = molecular target: T2, MET channel; test: MET current (IMET) inhibition by blockers, whole-cell voltage clamp of OHCs with glass-probe hair-bundle deflection; format: cell-based
Description: All experiments were performed at room temperature (20–25°C). Briefly, the basilar membrane with hair cells was acutely dissected from neonatal mice. […] The acutely isolated or cultured basilar membrane was used for electrophysiological recording within 1 h. […] Hair cells were recorded with a patch-clamp amplifier (EPC 10 USB and Patchmaster software, HEKA Elektronik, Lambrecht/Pfalz, Germany).
as §2
as §9, with “The fluid jet stimulation was performed as described previously ([Beurg et al., 2014]).” left out
as §3, §4

[7] = molecular target: T5, TMC1-mediated leak current (Mus musculus, UniProt Q8R4P5); test: MET-independent leak current (ILeak) in OHCs, MET channel closed by fluid jet or 100 μM DHS, NMDG subtraction (also by cochlear location and age); format: cell-based; details: 0.3 mM Ca2+
T5 construct: the basilar membrane with hair cells was acutely dissected from neonatal mice; endogenous in cells; host or cells: outer hair cells of acutely dissected neonatal mouse cochlea
T5 sequence (Q8R4P5 1-757): T1 sequence (Q8R4P5 1-757)
Description: Thus, the IBG may come from the resting MET current. […] A sinusoidal fluid jet deflected the hair bundle back and forth to open and close the MET channels (Figure 3A, inset). The Im was 98 pA at rest (Figure 3A,B), while the Im was 45 pA at fluid-jet-closed status (Figure 3B, #1). […] Thus, the ILeak persisted in either mechanical closure or pharmacological blockade of the MET channel (Figure 3C).
as §5
The sampling rate was 1 kHz for leak current recording, 50 kHz for the IV protocol and current-clamp recording, and 100 kHz for unitary channel recording. The voltage-clamp used a –70 mV holding potential, and the current-clamp was held at 0 pA. […]
as §7

[8] = OHCs, […] Ca2+, holding −70 mV, Hill fit; read-out: IC50, IBG (leak conductance)

T2 sequence (Q4KL25 whole entry partner, one chain of several): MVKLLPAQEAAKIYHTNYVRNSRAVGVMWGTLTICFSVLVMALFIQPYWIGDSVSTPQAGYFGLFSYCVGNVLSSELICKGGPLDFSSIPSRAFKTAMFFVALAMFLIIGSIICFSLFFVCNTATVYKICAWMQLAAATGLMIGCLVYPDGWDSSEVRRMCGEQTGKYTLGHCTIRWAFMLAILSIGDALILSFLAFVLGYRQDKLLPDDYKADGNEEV
T2 sequence (Q8K467 29-153 partner, one chain of several): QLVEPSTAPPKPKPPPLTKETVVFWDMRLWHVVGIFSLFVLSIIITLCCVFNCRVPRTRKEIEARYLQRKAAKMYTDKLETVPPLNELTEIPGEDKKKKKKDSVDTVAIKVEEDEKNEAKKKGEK
T2 sequence (Q9Z309 whole entry partner, one chain of several): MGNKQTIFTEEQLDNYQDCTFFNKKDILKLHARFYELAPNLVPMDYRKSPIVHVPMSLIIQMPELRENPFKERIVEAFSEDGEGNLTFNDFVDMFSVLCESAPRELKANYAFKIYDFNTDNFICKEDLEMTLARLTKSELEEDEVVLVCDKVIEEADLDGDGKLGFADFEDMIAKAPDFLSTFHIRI

Structure (SMILES): N=C(N)NC(=O)c1nc(Cl)c(N)nc1N [Amiloride, amiloride]
effect on the leak current compared with the MET current ([1]; graded concentrations): affected the leak current, albeit at higher concentrations than the MET current

Structure (SMILES): [Cl-].[Cs+] [Cs^+, CsCl]
size of ILeak conducted by the substituted cation (leak current in OHCs): slightly larger

Structure (SMILES): [Gd+3] [Gd3+]
MET (normalized), first block c1-c15 (MET channel [6]; Gd3+ 4000): 0.01958 and 0.0181 and 0.03486 and 0.01803 and 0.02788 and 0.02096 and 0.03255

Structure (SMILES): [La+3] [La3+]
met (normalized) (MET channel [6]; La3+ 4000): 0.01513 and 0.01398 and 0.02694 and 0.01393 and 0.02154 and 0.01619 and 0.02515

Structure (SMILES): COc1cc2c3cc1Oc1cc(ccc1O)C[C@@H]1c4c(cc(OC)c(O)c4Oc4ccc(cc4)C[C@@H]3N(C)CC2)CC[N+]1(C)C [dTC, d-tubocurarine]
IC50 (MET channel [6]): 6 µM
Leak nor ([1]; dTC 0.01): 1.062 and 1.003 and 1.024 and 0.9706 and 0.8444 and 0.8511 and 0.9123
effect on the leak current compared with the MET current ([1]; graded concentrations): affected the leak current, albeit at higher concentrations than the MET current
IC50 ([1]; read-out: IC50, IBG (leak conductance); OHCs, […] Ca2+, holding −70 mV, Hill fit): 82 µM

Further lines, with some results ahead:

macroscopic IMET (MET channel [2]; location D05, holding −70 mV): –369 ± 13 pA
macroscopic IMET (MET channel [2]; location D40, holding −70 mV): –384 ± 30 pA
macroscopic IMET (MET channel [2]; location D60, holding −70 mV): –461 ± 31 pA
size of ILeak conducted by the substituted cation (leak current in OHCs): robustly blocked
[Ca2+]o after which the MET current reached a plateau, sufficient to block the leak current (MET channel [5]): > 10 mM
Structure (SMILES): [Ca+2].[Cl-].[Cl-] [Ca^2+, CaCl2]
unitary MET channel current (MET channel [3]; 35 mM Ca2+, location D05, holding −70 mV): –4.7 ± 0.1 pA
unitary MET channel current (MET channel [3]; 35 mM Ca2+, location D20, holding −70 mV): –4.8 ± 0.1 pA
unitary MET channel current (MET channel [3]; 35 mM Ca2+, location D60, holding −70 mV): –4.9 ± 0.1 pA
unitary MET channel current (MET channel [3]; 35 mM [Ca2+]o, both low-frequency and high-frequency OHCs): ~ 5 pA
block of the leak current (leak current): sufficient to block the leak current to an extent similar to TMC1 removal in OHCs
Ca2+ permeability of the MET channel, PCa/PCs (MET channel [4]): around six

IC50 (MET channel [6]; read-out: IC50, IMET): 15 µM
DHS-NMDG (ILeak subtracted from that closed by 100 μM DHS), mean ± SEM ([7]; holding −70 mV): –65 ± 6 pA
membrane current in 144 Na + 0.1 DHS (IDHS) ([7]; holding −70 mV): 55 pA
blocking effect on the current baseline ([1]; 100 μM, working concentration that blocks MET channels): no blocking effect
IC50 [1, 8]: 487 µM
Structure (SMILES): CN[C@@H]1[C@H](O[C@H]2[C@H](O[C@H]3[C@H](O)[C@@H](O)[C@H](NC(=N)N)[C@@H](O)[C@@H]3NC(=N)N)O[C@@H](C)[C@]2(O)CO)O[C@@H](CO)[C@H](O)[C@H]1O [DHS, dihydrostreptomycin]
DHS-NMDG subtracted current, individual cells ([7]; source data of Figure 3C): -80.6086 pA and -48.8286 pA and -49.155 pA and -61.767 pA and -98.5004 pA and -60.6081 pA and -57.9458 pA and -59.6138 pA
Leak (normalized) ([1]; DHS 100 μM): 0.7251 and 0.66 and 1.086 and 0.62 and 0.8723 and 0.8832 and 0.9258

effect on the leak current ([1]; [Gd3+]o up to 80 μM): not affected
Structure (SMILES): [Cl][Gd]([Cl])[Cl] [Gd^3+, GdCl3]

IC50 (MET channel [6]; OHCs, 800 nm step deflection, […] Ca2+, holding −70 mV, Hill fit, read-out: IC50, IMET): 259 µM
IC50 [1, 8]: 531 µM
Structure (SMILES): [Cl][La]([Cl])[Cl] [La^3+, LaCl3]
